Measured values taken from patent US5693324A, “Tris(isonitrile) copper(I) sulfates for preparing radionuclide complexes” (The DuPont Merck Pharmaceutical Company, priority 1995, dated 1997).

Test: water solubility of tris(isonitrile)copper(I) complexes
Format: physicochemical

With O=S(=O)([O-])[O-].[C-]#[N+]CC(C)(C)OC.[C-]#[N+]CC(C)(C)OC.[C-]#[N+]CC(C)(C)OC.[C-]#[N+]CC(C)(C)OC.[C-]#[N+]CC(C)(C)OC.[C-]#[N+]CC(C)(C)OC.[Cu+].[Cu+] [[Cu(MIBI)3]2 [SO4], tris(1-isocyano-2-methoxy-2-methylpropane)copper(I) sulfate] the “water solubility, relative” value (compared with the tris(isonitrile)copper(I) adducts of U.S. Pat. No. 4,885,100) was “more soluble” and the water solubility (sulfate complexes of the present invention, in water) was greater than 100 mg/mL.
